# Where a name gives a salt, the structure may show the parent alone.
# Tests used:
# [1] = Solubility in aqueous lactic acid solution / pharmaceutically acceptable carriers; assay type: physicochemical
# [2] = In vivo conversion into the alcohol of formula II
# [3] = Solubility in water; assay type: physicochemical
# Description: (§1) Only 1-2 mg of the hydrochloride salt dissolves in 1 mL of water, and unacceptably large volumes of water would be required for delivery of an effective dose. Furthermore, only in an aqueous hydrochloric acid solution at the physiologically unacceptable pH of 1-1.5 does enough of the hydrochloride acid addition salt of the compound of formula I dissolve to provide a suitably concentrated solution useful for intravenous use.
# [4] = Solubility in aqueous hydrochloric acid solution; assay type: physicochemical; conditions: only in an aqueous hydrochloric acid solution; physiologically unacceptable pH
# Description: as §1
# [5] = test system: Aspergillus; conditions: SDB, geometric mean MIC and MFC
# [6] = Serum levels following oral dosing in monkeys; conditions: methyl cellulose formulation
# [7] = Serum levels following oral dosing in rats; conditions: methyl cellulose formulation
# [8] = test system: cytochrome P-450 liver drug metabolizing enzymes; assay: Induction of cytochrome P-450 liver drug metabolizing enzymes, in vivo rat model; conditions: oral administration
# [9] = Serum levels following oral dosing in dogs; conditions: methyl cellulose formulation
# [10] = Serum half life and tissue distribution following O.D. dosing
# [11] = Serum levels following oral dosing in mice; conditions: methyl cellulose formulation
smiles,measurement,setting,value
"CCC(C(C)OC(=O)CN)n1ncn(-c2ccc(N3CCN(c4ccc(OCC5COC(Cn6cncn6)(c6ccc(F)cc6F)C5)cc4)CC3)cc2)c1=O (single isomer, unassigned; (-))","solubility in pharmaceutically acceptable carriers, especially aqueous lactic acid solutions",[1]; aqueous lactic acid solutions,surprisingly soluble
same,solubility in aqueous lactic acid solution at physiologically acceptable pH,[1]; pH of at least about 3 to 3.5,soluble
same,in vivo conversion into the corresponding alcohol of formula II,[2],readily convertible in vivo
same,solubility in water,[3]; listed as lactic acid addition salt,water soluble
"CCC(C(C)OC(=O)CN)n1ncn(-c2ccc(N3CCN(c4ccc(OCC5COC(Cn6cncn6)(c6ccc(F)cc6F)C5)cc4)CC3)cc2)c1=O (single isomer, unassigned; (-)) [Hydrochloride]",pH of aqueous hydrochloric acid at which enough salt dissolves to provide a suitably concentrated solution for intravenous use,[4],1-1.5
same,solubility in water,[3]; Hydrochloride,sparingly soluble
same,solubility,[3]; read-out: amount of salt dissolving in 1 mL of water,1000 to 2000 µg/mL
"CCC(C(C)O)n1ncn(-c2ccc(N3CCN(c4ccc(OCC5COC(Cn6cncn6)(c6ccc(F)cc6F)C5)cc4)CC3)cc2)c1=O [compound of formula II, -(2 R-cis)-4-[4-[4-[4-[[-5-(2,4-Difluorophenyl)-tetrahydro-5-(1 H-1,2,4-triazol-1-ylmethyl)furan-3-yl]methoxy]phenyl]-1-piperazinyl]phenyl]-2-4-dihydro-2-[(1 S)-ethyl-2(S)-hydroxypropyl]-3 H-1,2,4-triazol-3-one]",in vitro antifungal activity against 37 species of Aspergillus compared to fluconazole,[5],superior antifungal in vitro activity
same,"serum levels compared to azoles of similar structure, monkeys",[6],consistently higher serum levels
same,"serum levels compared to azoles of similar structure, rats",[7],consistently higher serum levels
same,induction of cytochrome P-450 liver drug metabolizing enzymes,[8],not an inducer
same,"serum levels compared to azoles of similar structure, dogs",[9],consistently higher serum levels
same,serum half lives,[10],very long serum half lives
same,tissue distribution,[10],good tissue distribution
same,"serum levels compared to azoles of similar structure, mice",[11],consistently higher serum levels
